Read-outs that look alike come from different tables or passages of the source.
How the values were obtained:
[1] = MTT cell viability assay in HepG2 cell cultures; assay type: cell-based, human; conditions: human, HepG2 cells, MTT
Experimental: The approach we set‐up to test the new PCSK9i was based on functional assay, which evaluated at the same time compounds cytotoxicity, and their effect on the secreted PCSK9 on the same cell line. First, cell viability was evaluated in HepG2 cell cultures using the MTT assay (CC50 values are reported in Table 1 and Figure 5 ) after 24 h of incubation in starving conditions (0.4% fetal bovine serum (FBS)). The low FBS concentration, and thus low extracellular lipoproteins, stimulates the sterol responsive element binding protein (SREBP) pathway, inducing the expression of LDLR, PCSK9, HMG‐CoA reductase,^[ [28] ^] thus increasing the uptake of exogenous cholesterol and enhancing the synthesis of endogenous cholesterol. This first step allowed us to calculate the CC50 and identify the noncytotoxic concentrations (viability higher than 90%; Table 1), then tested for PCSK9 inhibitory activity.
Cell viability was assessed using the MTT assay. Cells were seeded in 96‐well plates (2.5 × 10^4 cells/well) in MEM supplemented with 10% v/v FBS and incubated for 24 h. The cells were then treated with the synthesized compounds dissolved in DMSO at increasing concentrations (from 0.5 to 50 µM) in MEM supplemented with 0.4% v/v FBS for 24 h. Simvastatin [20 and 40 µM] and BBR [10 µM] (both from Merck, St. Louis, Missouri, USA) were used as internal controls as PCSK9 inducer and inhibitor, respectively.^[ [21] ^, [34] ^, [35] ^] The cells were then incubated for 2 h with a solution of MTT [1 mg mL^–1] in MEM supplemented with 0.4% v/v FBS, away from light sources. The supernatant was then collected and 200 µL of DMSO was added to each well to solubilize the newly formed formazan. Finally, an aliquot of 100 µL was taken to measure the absorbance at a wavelength of 570 nm using an absorbance microplate reader (Spark Tecan, Switzerland). Every experimental condition was run in duplicate and the average cell viability and standard deviation was calculated. Cell viability was expressed as the percentage of treated cells compared to untreated (basal) cells. CC50 values for each compound were calculated by interpolating the percentage of cell viability through nonlinear regression analysis of the log (inhibition) versus response using GraphPad Prism software version 8.0 (GraphPad Software Inc., La Jolla, CA).

secreted PCSK9 = test: PCSK9 secretion in culture medium, ELISA on HepG2 supernatants; assay type: cell-based, human; conditions: for decrease of secreted PCSK9 vs. basal: given as decrease
Experimental: Next, the levels of secreted PCSK9 were quantified by ELISA assay (Figure 5) only on supernatants collected from cells treated with noncytotoxic concentrations of each compound, as reported in Table 1. Simvastatin (Simva) at 20 and 40 μM and berberine (BBR) at 10 μM were included as controls. As described in the literature, simvastatin induces PCSK9 expression as a compensatory mechanism in response to its cholesterol‐lowering effects, being a pharmacological competitor for HMG‐CoA reductase, the rate‐limiting enzyme of the cholesterol biosynthetic pathway.^[ [29] ^] In contrast, BBR, a natural compound, reduces the expression of PCSK9 levels through transcriptional inhibition, thus increasing the LDLR availability on plasma membrane.^[ [30] ^] As additional and distinct mechanism to the latter, BBR is also able to stabilize the transcript of LDLR, thus increasing its half‐life.^[ [31] ^] As expected, cells stimulated with simvastatin released more PCSK9 into the culture medium compared to unstimulated cells, with a statistically significant concentration‐dependent effect (+73% at 20 μM, p < 0.01; +200% at 40 μM, p < 0.0001), while BBR at 10 μM decreased PCSK9 levels in the medium more than 50% (p < 0.0001 vs. basal) (Figure 5).^[ [32] ^] The amount of PCSK9 secreted into the culture media was measured with an appropriate ELISA kit (R&D System, DY3888 and DY008B2) on the supernatants collected during the MTT assay. Every experimental condition was run in duplicate and the average PCSK9 secretion and standard deviation was calculated. A 4PL regression analysis was used to interpolate unknowns with the standard curve using GraphPad Prism v10.2, according to manufacturers’ instructions. The data were normalized onto the corresponding cell viability, and IC50 was then calculated using GraphPad Prism v10.2.

[2] = In vitro metabolic stability with mouse liver microsomes; assay type: in vitro ADME; conditions: 60 min; for metabolic stability (in words): MLM + NADPH-generating system; for metabolic stability, percentage of intact compound recovered relative to control: MLM 1 mg/ml + NADPH-generating system, 10 µM, HPLC
Experimental: All newly synthesized LSF derivatives of 5c were biologically evaluated to determine whether the introduced modifications influenced both metabolic stability and anti‐PCSK9 activity. Microsomal stability assays were conducted to assess the impact of LSF modifications on improving the stability of 5c. In these assays, LSF derivatives were incubated with mouse liver microsomes (MLM) and an NADPH‐generating system for 60 min, followed by HPLC analysis. Control samples included compounds and liver microsomes without the NADPH system, allowing for the assessment of nonspecific binding to microsomes. […] Acylated derivatives 12, 13, and 14 achieved stability levels exceeding 95%, as did the bicyclic derivative 7, which exemplifies a dual‐site functionalization.
MLM (pooled male) were obtained from Xenotech, LLC (Cambridge, Kansas City, USA). Glucose‐6‐phosphate (G6P), oxidized nicotinamide‐adenine‐dinucleotide phosphate (NADP^+), magnesium chloride (MgCl2), and glucose‐6‐phosphate‐dehydrogenase (G6PDH) were supplied by Sigma‐Aldrich (Milan, Italy). Metabolic stability assays were modified from Ferlenghi et al.^[ [33] ^] Briefly, samples were prepared in 100 mM phosphate buffered saline (PBS), pH 7.4, containing 1 mg ml^–1 MLM and a NADPH‐generating system (5 mM MgCl2, 10 mM glucose‐6‐phosphate, 2 mM NADP^+, 1.5 U ml^–1 of glucose‐6‐phosphate dehydrogenase). After incubation (37 °C, 5 min stirring), compounds stock solutions in DMSO were added to a final concentration of 10 µM. The final DMSO percentage in samples was kept at 0.5%. After 60 min, single aliquots of reaction mixture were withdrawn, added of two volumes of acetonitrile, centrifuged (10,000 g, 10 min) and the supernatant was analyzed by HPLC. The unspecific binding to MLM was evaluated by means of control samples in which the compounds were incubated in the absence of a NADPH generating system. The apparatus used for HPLC analysis was a Shimadzu instrument, with a reverse‐phase Nova‐Pak column (Waters) (C18 4 μm 3.9 × 150 mm, Waters). The mobile phase, pumped at a flow rate of 1.2 ml min^–1, consisted of water and acetonitrile in either a 50:50 (v/v) ratio (compounds 5c, 6a, 6b, 6c, 7, 8, 12, 13, 14, 17b) or a 40:60 (v/v) ratio (compounds 11 and 15) or a 30:70 (v/v) ratio (for compounds 17a, 18a, 18b). For compounds 9 and 10, a phosphate buffer (5.98 g L^–1 Na2HPO4, 0.19 g L^–1 KH2PO4, adjusted to pH 7.4 with 85% H3PO4 and supplemented with 1.4 mL L^–1 triethylamine; final pH: 8) and acetonitrile (50:50, v/v) were pumped at a flow rate of 2 mL min^–1. In all cases, column temperature was 35 °C, injection volume was 50 µl, and absorbance was monitored at 254 nm. Serial dilutions for the calibration curves were prepared in the interval 0.5–20 µM in either PBS:CH3CN or H2O:CH3CN mixture (50:50, v/v) for compounds 5c, 6a, 6b, 8, 9, 10, 11, 12, 13, 14, 15, 17a, 17b, 18a, 18b, and in acetonitrile for compounds 6c and 7.

[3] = 24 h incubation, HepG2, 0.4% FBS, 0.5-50.0 μM, read-out: CC50 (CI 95%)
[4] = Homo sapiens, HepG2, 24 h, read-out: secreted PCSK9 change vs. basal
[5] = printed in Figures 5 and 8, HepG2, 24 h, read-out: CC50
[6] = Homo sapiens, HepG2, Table S2, ELISA, non-cytotoxic concentrations, read-out: IC50 ± SD on PCSK9 secreted by HepG2
[7] = Homo sapiens, HepG2, 24 h, ELISA on supernatants, normalized to viability, Figures 5 and 8 and text, read-out: IC50 (anti-PCSK9 activity, PCSK9 secretion)
[8] = HepG2, 24 h, non-cytotoxic concentrations

Compound | CC50 at 24 h [1, 3] [µM] | metabolic stability (in words) [2] | IC50 (secreted PCSK9; [6]) [µM] | other results
Cc1cc(OCc2ccc(C(F)(F)F)cc2)cc(=O)n1Cc1ccc(C(F)(F)F)cc1 [Compound 17a, 6‐Methyl‐1‐(4‐(Trifluoromethyl)Benzyl)‐4‐((4‐(Trifluoromethyl)Benzyl)Oxy)pyridin‐2(1H)‐One] | 22 | did not show improved metabolic stability compared to 5c | – | inhibition at 5 µM (secreted PCSK9; [4]): 58%
CO/C(=N\c1cc(C)n(Cc2ccc(C(F)(F)F)cc2)c(=O)c1)c1ccc(C(F)(F)F)cc1 [Compound 8, Methyl (Z)‐N‐(6‐Methyl‐2‐Oxo‐1‐(4‐(Trifluoromethyl)Benzyl)‐1,2‐Dihydropyridin‐4‐yl)‐4‐(Trifluoromethyl)Benzimidate] | 30.2 | entirely metabolized | 7.2 ± 0.51 | CC50 at 24 h [1, 5]: 43.1 µM; decrease of secreted PCSK9 vs. basal (secreted PCSK9; 10 μM, HepG2, 24 h): 50%
Cc1cc(NCc2ccc(C(F)(F)F)cc2)c(I)c(=O)n1Cc1ccc(C(F)(F)F)cc1 [Compound 6c, 3‐Iodo‐6‐Methyl‐1‐(4‐(Trifluoromethyl)Benzyl)‐4‐((4‐(Trifluoromethyl)Benzyl)Amino)pyridin‐2(1H)‐One] | 46.9 | did not improve compared to the parent compound 5c | – | inhibition at 0.5 µM (secreted PCSK9; [4]): 20%
COc1ccc2cc3[n+](cc2c1OC)CCc1cc2c(cc1-3)OCO2 [BBR, berberine, reference compound] | – | – | – | CC50 at 24 h [1, 5]: 25 µM; decrease of secreted PCSK9 vs. basal (secreted PCSK9; 10 μM, HepG2, 24 h): more than 50%; inhibition at 10 µM (secreted PCSK9; Homo sapiens, 10 μM, HepG2, 24 h, read-out: secreted PCSK9 change vs. basal): 52%; IC50 (secreted PCSK9; [7]): 10 µM
Cc1cc(N(Cc2ccc(C(F)(F)F)cc2)C(=O)CCl)cc(=O)n1Cc1ccc(C(F)(F)F)cc1 [Compound 14, 2‐Chloro‐N‐(6‐Methyl‐2‐Oxo‐1‐(4‐(Trifluoromethyl)Benzyl)‐1,2‐Dihydropyridin‐4‐yl)‐N‐(4‐(Trifluoromethyl)Benzyl)Acetamide] | 15 | – | 6.4 ± 0.37 | effect on PCSK9 secretion (in words) (secreted PCSK9; [8]): a bit less effective than 8 at the highest concentration used; metabolic stability, percentage of intact compound recovered relative to control [2]: exceeding 95%
Cc1cc(OCc2cccc(F)c2)cc(=O)n1Cc1ccc(Cl)cc1 [Compound 17b, 1‐(4‐Chlorobenzyl)‐4‐((3‐Fluorobenzyl)Oxy)‐6‐Methylpyridin‐2(1H)‐One] | 10 | did not show any improvement in metabolic stability compared to 5c | – | inhibition at 5 µM (secreted PCSK9; [4]): 82%; IC50 (secreted PCSK9; [7]): < 2.5 µM
CC(=O)N(Cc1ccc(C(F)(F)F)cc1)c1cc(C)n(Cc2ccc(C(F)(F)F)cc2)c(=O)c1 [Compound 12, N‐(6‐Methyl‐2‐Oxo‐1‐(4‐(Trifluoromethyl)Benzyl)‐1,2‐Dihydropyridin‐4‐yl)‐N‐(4‐(Trifluoromethyl)Benzyl)Acetamide] | 43 | – | 13.6 ± 2.67 | effect on PCSK9 secretion (in words) (secreted PCSK9; [8]): did not inhibit PCSK9 in a dose‐dependent manner; inhibition at 25 µM (secreted PCSK9; Homo sapiens, 25 μM, HepG2, 24 h, read-out: secreted PCSK9 change vs. basal): 75%; metabolic stability, percentage of intact compound recovered relative to control [2]: exceeding 95%
Cc1cc2c(c(=O)n1Cc1ccc(C(F)(F)F)cc1)CCC(=O)N2Cc1ccc(C(F)(F)F)cc1 [Compound 11, 7‐Methyl‐1,6‐Bis(4‐(Trifluoromethyl)Benzyl)‐4,6‐Dihydro‐1,6‐Naphthyridine‐2,5(1H,3H)‐Dione] | 28 | modest yet notable improvement in stability | 10.2 ± 2.81 | effect on PCSK9 secretion (in words) (secreted PCSK9; [8]): moderate but significant inhibition of PCSK9 secretion
CCC(C)(C)C(=O)O[C@H]1C[C@@H](C)C=C2C=C[C@H](C)[C@H](CC[C@@H]3C[C@@H](O)CC(=O)O3)[C@H]21 [simvastatin, reference compound] | – | – | – | secreted PCSK9 change vs. unstimulated cells (secreted PCSK9; 20 μM, HepG2, 24 h): +73%; secreted PCSK9 change vs. unstimulated cells (secreted PCSK9; 40 μM, HepG2, 24 h): +200%
Cc1cc(NCc2ccc(C(F)(F)F)cc2)c(Cl)c(=O)n1Cc1ccc(C(F)(F)F)cc1 [Compound 6a, 3‐Chloro‐6‐Methyl‐1‐(4‐(Trifluoromethyl)Benzyl)‐4‐((4‐(Trifluoromethyl)Benzyl)Amino)pyridin‐2(1H)‐One] | 16 | – | 5.4 ± 2.65 | inhibition at 0.5 µM (secreted PCSK9; [4]): 80%; inhibition at 5 µM (secreted PCSK9; [4]): 55%
Cc1cc2c(c(=O)n1Cc1ccc(C(F)(F)F)cc1)CN(C(C)C)CN2Cc1ccc(C(F)(F)F)cc1 [Compound 10, 3‐Isopropyl‐7‐Methyl‐1,6‐Bis(4‐(Trifluoromethyl)Benzyl)‐2,3,4,6‐Tetrahydropyrido[4,3‐d]pyrimidin‐5(1H)‐One] | 21.9 | less stable | – | –
